Laboratory results: patent US20070128217A1 (priority 2003, published 2007)

Experiments:
[1] = test system: antibodies in sera from SARS patients (sera 1a, 1b, 2, 6, 37, 62, London, SARS-yellow, SARS-green); type: binding, human; parameters: Binding of serum 6 to linear peptides of protein X1 of SARS-CoV Urbani / Binding of serum 37 to linear peptides of protein X1 of SARS-CoV Urbani / Binding of serum 6 to looped/cyclic peptide (PEPSCAN-ELISA) / Binding of serum 37 to looped/cyclic peptide (PEPSCAN-ELISA) / Binding of serum 37 to looped/cyclic peptides of protein X1 of SARS-CoV Urbani / Binding of serum 6 to linear peptides of protein X2 / Binding of serum 37 to linear peptides of protein X2 / Binding of serum 37 to looped/cyclic peptides of protein X2 of SARS-CoV Urbani / Binding of serum 6 to linear peptides of protein M of SARS-CoV Urbani / Binding of serum 37 to linear peptides of protein M of SARS-CoV Urbani / Binding of serum 6 to looped/cyclic peptides of protein M of SARS-CoV Urbani / Binding of serum 37 to looped/cyclic peptides of protein M of SARS-CoV Urbani / Binding of serum 6 to linear peptides of protein X3 of SARS-CoV Urbani / Binding of serum 37 to linear peptides of protein X3 of SARS-CoV Urbani / Binding of serum 37 to looped/cyclic peptides of protein X3 of SARS-CoV Urbani / Binding of serum 6 to linear peptides of protein X4 of SARS-CoV Urbani / Binding of serum 37 to linear peptides of protein X4 of SARS-CoV Urbani / Binding of serum 37 to looped/cyclic peptides of protein X4 of SARS-CoV Urbani / Binding of serum 6 to linear peptides of protein X5 of SARS-CoV Urbani / Binding of serum 37 to linear peptides of protein X5 of SARS-CoV Urbani / Binding of serum 37 to looped/cyclic peptides of protein X5 of SARS-CoV Urbani / Binding of serum 6 to linear peptides of protein N of SARS-CoV Urbani / Binding of serum 37 to linear peptides of protein N of SARS-CoV Urbani / Binding of serum 6 to linear peptide (PEPSCAN-ELISA) / Binding of serum 1a to looped/cyclic peptides of protein N of SARS-CoV Urbani / Binding of serum 1b to looped/cyclic peptides of protein N of SARS-CoV Urbani / Binding of serum 2 to looped/cyclic peptides of protein N of SARS-CoV Urbani / Binding of serum 6 to looped/cyclic peptides of protein N of SARS-CoV Urbani / Binding of serum 37 to looped/cyclic peptides of protein N of SARS-CoV Urbani / Binding of serum 62 to looped/cyclic peptides of protein N of SARS-CoV Urbani / Binding of serum London to looped/cyclic peptides of protein N of SARS-CoV Urbani / Binding of serum SARS-green to looped/cyclic peptides of protein N of SARS-CoV Urbani: unit not given here
[2] = test system: control sera (pooled serum of ten healthy LUMC hospital workers; commercial negative donor pooled serum from the Dutch bloodbank); type: binding, human; parameters: Binding of Control serum LUMC to linear peptides / Binding of Control serum Blood-bank to linear peptides / Binding of Control serum LUMC to looped peptides / Binding of Control Serum Blood-Bank to Looped peptides / Binding of Control serum LUMC to linear peptides of the protein M of SARS-CoV Urbani / Binding of Control serum Blood-bank to linear peptides of the protein M of SARS-CoV Urbani / Binding of Control serum LUMC to looped peptides of the protein M of SARS-CoV Urbani / Binding of Control Serum Blood-Bank to Looped peptides of the protein M of SARS-CoV Urbani: unit not given here
[3] = test system: rabbit serum obtained by immunizing a rabbit with the SARS-CoV strain Frankfurt 1; type: binding; parameters: Binding of a rabbit serum to linear peptides / Binding of a rabbit serum to looped peptides / Rabbit serum linear peptides / Rabbit serum looped peptides / Binding of a rabbit serum to linear peptides of protein N of SARS-CoV Urbani (Rabbit serum linear peptides) / Binding of a rabbit serum to looped/cyclic peptides of protein N of SARS-CoV Urbani (Rabbit serum looped peptides): unit not given here
[4] = test system: recombinant human anti-SARS-CoV antibody 03-018; type: binding; parameters: Binding of antibody 03-018 to linear peptides of the N protein of SARS-CoV Urbani / Binding of antibody 03-018 to looped/cyclic peptides of the N protein of SARS-CoV Urbani: unit not given here

| Sequence | Binding of serum 1a to linear peptides of protein N of SARS-CoV Urbani [1] | Binding of serum 1a to looped/cyclic peptides of protein N of SARS-CoV Urbani [1] | Binding of serum 1b to linear peptides of protein N of SARS-CoV Urbani [1] | Binding of serum 1b to looped/cyclic peptides of protein N of SARS-CoV Urbani [1] | Binding of serum 2 to linear peptides of protein N of SARS-CoV Urbani [1] | Binding of serum 2 to looped/cyclic peptides of protein N of SARS-CoV Urbani [1] | Binding of serum 6 to linear peptides of protein N of SARS-CoV Urbani [1] | Binding of serum 6 to looped/cyclic peptides of protein N of SARS-CoV Urbani [1] | Binding of serum 37 to linear peptides of protein N of SARS-CoV Urbani [1] | Binding of serum 37 to looped/cyclic peptides of protein N of SARS-CoV Urbani [1] | Binding of serum 62 to linear peptides of protein N of SARS-CoV Urbani [1] | Binding of serum 62 to looped/cyclic peptides of protein N of SARS-CoV Urbani [1] | Binding of serum London to linear peptides of protein N of SARS-CoV Urbani [1] | Binding of serum London to looped/cyclic peptides of protein N of SARS-CoV Urbani [1] | Binding of serum SARS-green to linear peptides of protein N of SARS-CoV Urbani [1] | Binding of serum SARS-green to looped/cyclic peptides of protein N of SARS-CoV Urbani [1] | Binding of serum SARS-yellow to linear peptides of protein N of SARS-CoV Urbani [1] | Binding of serum SARS-yellow to looped/cyclic peptides of protein N of SARS-CoV Urbani [1] | Binding of a rabbit serum to linear peptides of protein N of SARS-CoV Urbani (Rabbit serum linear peptides) [3] | Binding of a rabbit serum to looped/cyclic peptides of protein N of SARS-CoV Urbani (Rabbit serum looped peptides) [3] | further results |
| --- | --- | --- | --- | --- | --- | --- | --- | --- | --- | --- | --- | --- | --- | --- | --- | --- | --- | --- | --- | --- | --- |
| PQGLPNNTASWFTAL | 0.2 | 0.5 | 0.1 | 0.3 | 0.2 | 0.6 | 0.1 | 0.3 | 0.7 | 1.0 | 0.7 | 0.9 | 0.4 | 0.6 | 0.2 | 0.4 | 0.5 | 0.9 | 0.1 | 0.6 | Binding of Control Serum Blood-Bank to Looped peptides [2]: 0.9; Binding of Control serum Blood-bank to linear peptides [2]: 0.7; Binding of Control serum LUMC to linear peptides [2]: 0.7; Binding of Control serum LUMC to looped peptides [2]: 0.9; Binding of antibody 03-018 to linear peptides of the N protein of SARS-CoV Urbani [4]: 0.1; Binding of antibody 03-018 to looped/cyclic peptides of the N protein of SARS-CoV Urbani [4]: 0.3 |
| PQIAQFAPSASAFFG | 0.2 | 0.4 | 0.1 | 0.3 | 0.2 | 0.4 | 0.1 | 0.3 | 0.6 | 0.7 | 0.6 | 0.7 | 0.5 | 0.5 | 0.6 | 0.4 | 0.6 | 0.5 | 0.1 | 0.5 | Control Serum Blood-Bank Looped peptides [2]: 0.8; Control serum Blood-bank linear peptides [2]: 0.7; Control serum LUMC linear peptides [2]: 0.5; Control serum LUMC looped peptides [2]: 0.7; Binding of antibody 03-018 to linear peptides of the N protein of SARS-CoV Urbani [4]: 0.1; Binding of antibody 03-018 to looped/cyclic peptides of the N protein of SARS-CoV Urbani [4]: 0.2 |
| PRWYFYYLGTGPEAS | 0.3 | 0.4 | 0.2 | 0.3 | 0.2 | 0.5 | 0.2 | 0.3 | 0.9 | 1.0 | 0.7 | 0.8 | 0.5 | 0.5 | 0.5 | 0.9 | 0.6 | 0.8 | 0.2 | 0.6 | Binding of Control Serum Blood-Bank to Looped peptides [2]: 0.7; Binding of Control serum Blood-bank to linear peptides [2]: 0.7; Binding of Control serum LUMC to linear peptides [2]: 0.6; Binding of Control serum LUMC to looped peptides [2]: 0.7; Binding of antibody 03-018 to linear peptides of the N protein of SARS-CoV Urbani [4]: 0.1; Binding of antibody 03-018 to looped/cyclic peptides of the N protein of SARS-CoV Urbani [4]: 0.2 |
| PSGTWLTYHGAIKLD | 0.3 | 0.2 | 0.2 | 0.1 | 0.2 | 0.2 | 0.2 | 0.1 | 1.0 | 0.4 | 0.8 | 0.3 | 0.7 | 0.3 | 0.6 | 0.1 | 0.7 | 0.1 | 0.1 | 0.0 | Control Serum Blood-Bank Looped peptides [2]: 0.4; Control serum Blood-bank linear peptides [2]: 0.7; Control serum LUMC linear peptides [2]: 0.6; Control serum LUMC looped peptides [2]: 0.4; Binding of antibody 03-018 to linear peptides of the N protein of SARS-CoV Urbani [4]: 0.1; Binding of antibody 03-018 to looped/cyclic peptides of the N protein of SARS-CoV Urbani [4]: 0.2 |
